Patent publication US20210392890A1, “COMPOSITIONS COMPRISING PYRIDINE CARBOXYLATE HERBICIDES AND PLANT GROWTH REGULATORS” (Corteva Agriscience LLC, priority 2018, published 2021)
Values joined by “and” are separate entries in the source; they are usually repeats but may differ in a detail not shown here. Equal values may be shown once. Read-outs that look alike come from different tables or passages of the source.

Key:
Type in all cases: in vivo
[1] = tested on: Cirsium arvense (Canada thistle); test: Greenhouse postemergence herbicidal effect on CIRAR; details: for Herbicidal Effects (% visual injury) CIRAR Obs: Ethephon 0 g/ha
Excerpt: (§1) Seeds of the desired test plant species were planted in a 90:10% v/v (volume/volume) mixture of PRO-MIX® BX (Premier Tech Horticulture, Quakertown, Pa., USA) and PROFILE® GREENS GRADE™ (Profile Products LLC, Buffalo Grove, Ill., USA) planting mixture, which typically has a pH of 5.2 to 6.2 and an organic matter content of at least 50 percent, in plastic pots with a surface area of 103.2 square centimeters (cm^2). In some aspects, to help ensure good germination and healthy plants, a fungicide treatment and/or other chemical or physical treatment was applied. The plants were grown for 7-36 days (d) in a greenhouse with an approximate 14-hour (h) photoperiod which was maintained at about 23° C. during the day and 22° C. during the night. Nutrients and water were added on a regular basis and supplemental lighting was provided with overhead metal halide 1000-Watt lamps as necessary. The plants were employed for testing when they reached the second or third true leaf stage.
(§2) Emulsifiable concentrates of each of each pyridine carboxylate herbicide (Compound A or Compound B) were prepared at 100 grams acid equivalent per liter (g ae/L). The emulsifiable concentrates also included a safener, cloquintocet-mexyl, at 120 grams active ingredient per liter (g ai/L). An aliquot of each emulsifiable concentrate was placed in a 25 mL glass vial and diluted with an aqueous mixture of 1.25% (v/v) ACTIROB® B esterified rapeseed oil (Bayer Crop Science, Research Triangle Park, N.C., USA) or MSO® Concentrate with LECI-TECH® methylated soybean oil (Loveland Products, Loveland, Colo., USA) to obtain concentrated stock solutions at the highest application rate for each herbicide, based upon a 12 milliliter (mL) application volume at a rate of 187 liters per hectare (L/ha). The concentrated stock solutions were further diluted with an aqueous mixture of 1.25% v/v ACTIROB® B or MSO® Concentrate with LECI-TECH® to obtain stock solutions at reduced application rates for each herbicide. Spray solutions of the herbicide combinations (Compound A or Compound B plus the PGR) were prepared by adding weighed amounts or aliquots of the PGR to the stock solutions of Compound A or Compound B to form 12-mL spray solutions in two-way combinations.
(§3) The spray solutions were applied to the plant material with an overhead Mandel track sprayer equipped with 8002E nozzles calibrated to deliver 187 L/ha over an application area of 0.503 square meters (m^2) at a spray height of 18 inches (43 centimeters (cm)) above the average plant canopy. Control plants were sprayed in the same manner with the solvent blank. All pyridine carboxylate herbicide (component a) application rates are given as “g ae/ha” and all PGR (component b) application rates are given as “g ai/ha.”
(§4) The treated plants and control plants were placed in a greenhouse as described above and watered by sub-irrigation to prevent wash-off of the test compounds. After 20-22 d, the condition of the test plants as compared with that of the control plants was determined visually and scored on a scale of 0 to 100 percent where 0 corresponds to no injury and 100 corresponds to complete kill.

Kochia scoparia (kochia) = test: Greenhouse postemergence herbicidal effect on KCHSC; details: for Herbicidal Effects (% visual injury) KCHSC Obs: Ethephon 0 g/ha
Excerpt: as §1, §2, §3, §4

[2] = tested on: Stellaria media (chickweed); test: Greenhouse postemergence herbicidal effect on STEME; details: for Herbicidal Effects (% visual injury) STEME Obs: Ethephon 0 g/ha
Excerpt: as §1, §2, §3, §4

[3] = tested on: Brassica napus (spring rape); test: Greenhouse postemergence herbicidal effect on BRSNN; details: for Herbicidal Effects (% visual injury) BRSNN Obs: Ethephon 0 g/ha
Excerpt: as §1, §2, §3, §4

[4] = tested on: Setaria faberi (giant foxtail); test: Greenhouse postemergence herbicidal effect on SETFA; details: for Herbicidal Effects (% visual injury) SETFA Obs: Ethephon 0 g/ha
Excerpt: as §1, §2, §3, §4

[5] = tested on: Chenopodium album L. (common lambsquarters); test: Greenhouse postemergence herbicidal effect on CHEAL; details: Ethephon 0 g/ha
Excerpt: as §1, §2, §3, §4

[6] = tested on: Lamium purpureum (purple deadnettle); test: Greenhouse postemergence herbicidal effect on LAMPU
Excerpt: as §1
(§5) Emulsifiable concentrates of each of each pyridine carboxylate herbicide (Compound A or Compound B) were prepared at 100 grams acid equivalent per liter (g ae/L). The emulsifiable concentrates also included a safener, cloquintocet-mexyl, at 120 grams active ingredient per liter (g ai/L). […]
as §4

[7] = tested on: Capsella bursa-pastoris (shepherd's purse); test: Greenhouse postemergence herbicidal effect on CAPBP
Excerpt: as §1, §5, §4

[8] = tested on: Matricaria inodora (scentless chamomile); test: Greenhouse postemergence herbicidal effect on MATIN
Excerpt: as §1, §5, §4

[9] = tested on: Anthemis arvensis (corn chamomile); test: Greenhouse postemergence herbicidal effect on ANTAR
Excerpt: as §1, §5, §4

[10] = tested on: Matricaria chamomilla (wild chamomile); test: Greenhouse postemergence herbicidal effect on MATCH
Excerpt: as §1, §5, §4

[11] = tested on: Veronica persica (Persian speedwell); test: Greenhouse postemergence herbicidal effect on VERPE
Excerpt: as §1, §5, §4

[12] = tested on: Papaver rhoeas (herbicide-resistant poppy); test: Greenhouse postemergence herbicidal effect on PAPRH-RES
Excerpt: as §1, §5, §4

[13] = tested on: Brassica napus (winter rape); test: Greenhouse postemergence herbicidal effect on BRSNW
Excerpt: as §1, §5, §4

[14] = tested on: Cyperus esculentus (yellow nutsedge); test: Greenhouse postemergence herbicidal effect on CYPES; details: Ethephon 0 g/ha
Excerpt: as §1, §5
as §4, with “kill. […]” for “kill.”

[15] = tested on: Rumex obtusifolia (broadleaf dock); test: Greenhouse postemergence herbicidal effect on RUMOB; details: Ethephon 0 g/ha
Excerpt: as §1, §5
as §4, with “kill. […]” for “kill.”

rice (ORYSA) = details: Ethephon 0 g/ha
Excerpt: as §1, §5
as §4, with “kill. […]” for “kill.”

N#CCOC(=O)c1nc(-c2ccc3cc[nH]c3c2F)c(F)c(N)c1Cl [Compound A, cyanomethyl 4-amino-3-chloro-5-fluoro-6-(7-fluoro-1H-indol-6-yl)pyridine-2-carboxylate]
Herbicidal Effects (% visual injury) CIRAR Obs ([1]; Compound A 7.5 g/ha): 50% | Herbicidal Effects (% visual injury) CIRAR Obs ([1]; Compound A 10 g/ha): 60% | % visual injury Obs ([1]; herbicide 7.5 g ae/ha alone): 25% and 40% and 50% | % visual injury Obs ([1]; herbicide 15 g ae/ha alone): 63% | Herbicidal Effects (% visual injury) KCHSC Obs (Kochia scoparia (kochia); Compound A 7.5 g/ha): 70% | Herbicidal Effects (% visual injury) KCHSC Obs (Kochia scoparia (kochia); Compound A 10 g/ha): 65% | % visual injury Obs (Kochia scoparia (kochia); herbicide 7.5 g ae/ha alone): 63% and 75% | % visual injury Obs (Kochia scoparia (kochia); herbicide 10 g ae/ha alone): 65% and 73% | % visual injury Obs (Kochia scoparia (kochia); herbicide 15 g ae/ha alone): 63% | Herbicidal Effects (% visual injury) STEME Obs ([2]; Compound A 7.5 g/ha): 100% | Herbicidal Effects (% visual injury) STEME Obs ([2]; Compound A 10 g/ha): 100% | % visual injury Obs ([2]; herbicide 7.5 g ae/ha alone): 89% and 85% | % visual injury Obs ([2]; herbicide 10 g ae/ha alone): 90% and 88% | % visual injury Obs ([2]; herbicide 15 g ae/ha alone): 89% | Herbicidal Effects (% visual injury) BRSNN Obs ([3]; Compound A 7.5 g/ha): 45% | Herbicidal Effects (% visual injury) BRSNN Obs ([3]; Compound A 10 g/ha): 55% | % visual injury Obs ([3]; herbicide 7.5 g ae/ha alone): 65% | % visual injury Obs ([3]; herbicide 10 g ae/ha alone): 65% | Herbicidal Effects (% visual injury) SETFA Obs ([4]; Compound A 7.5 g/ha): 55% | Herbicidal Effects (% visual injury) SETFA Obs ([4]; Compound A 10 g/ha): 70% | % visual injury Obs ([4]; herbicide 7.5 g ae/ha alone): 78% | % visual injury Obs ([4]; herbicide 10 g ae/ha alone): 80% | Herbicidal Effects (% visual injury) CHEAL Obs ([5]; Compound A 7.5 g/ha): 100% | Herbicidal Effects (% visual injury) CHEAL Obs ([5]; Compound A 10 g/ha): 100% | % visual injury Obs ([6]; herbicide 7.5 g ae/ha alone): 68% | % visual injury Obs ([6]; herbicide 10 g ae/ha alone): 73% | % visual injury Obs ([6]; herbicide 15 g ae/ha alone): 73% | % visual injury Obs ([7]; herbicide 7.5 g ae/ha alone): 45% | % visual injury Obs ([7]; herbicide 10 g ae/ha alone): 55% | % visual injury Obs ([7]; herbicide 15 g ae/ha alone): 55% | % visual injury Obs ([8]; herbicide 7.5 g ae/ha alone): 55% | % visual injury Obs ([8]; herbicide 10 g ae/ha alone): 60% | % visual injury Obs ([8]; herbicide 15 g ae/ha alone): 83% | % visual injury Obs ([9]; herbicide 7.5 g ae/ha alone): 68% | % visual injury Obs ([9]; herbicide 10 g ae/ha alone): 70% | % visual injury Obs ([9]; herbicide 15 g ae/ha alone): 88% | % visual injury Obs ([10]; herbicide 7.5 g ae/ha alone): 23% | % visual injury Obs ([10]; herbicide 10 g ae/ha alone): 35% | % visual injury Obs ([10]; herbicide 15 g ae/ha alone): 45% | % visual injury Obs ([11]; herbicide 7.5 g ae/ha alone): 78% | % visual injury Obs ([11]; herbicide 10 g ae/ha alone): 90% | % visual injury Obs ([11]; herbicide 15 g ae/ha alone): 93% | % visual injury Obs ([12]; herbicide 7.5 g ae/ha alone): 96% | % visual injury Obs ([12]; herbicide 10 g ae/ha alone): 98% | % visual injury Obs ([12]; herbicide 15 g ae/ha alone): 100% | % visual injury Obs ([13]; herbicide 7.5 g ae/ha alone): 60% | % visual injury Obs ([13]; herbicide 10 g ae/ha alone): 65% | % visual injury Obs ([13]; herbicide 15 g ae/ha alone): 73% | Herbicidal Effects (% visual injury) CYPES Obs ([14]; Compound A 7.5 g/ha): 58% | Herbicidal Effects (% visual injury) CYPES Obs ([14]; Compound A 10 g/ha): 38% | Herbicidal Effects (% visual injury) RUMOB Obs ([15]; Compound A 7.5 g/ha): 8% | Herbicidal Effects (% visual injury) RUMOB Obs ([15]; Compound A 10 g/ha): 18% | Herbicidal Effects (% visual injury) ORYSA Obs (rice (ORYSA); Compound A 7.5 g/ha): 15% | Herbicidal Effects (% visual injury) ORYSA Obs (rice (ORYSA); Compound A 10 g/ha): 18%
